Data published in ChEMBL document CHEMBL5523758, “Discovery of 2-Methyl-5-(1H-pyrazol-4-yl)pyridines and Related Heterocycles as Promising M4 mAChR Positive Allosteric Modulators for the Treatment of Neurocognitive Disorders” (J Med Chem, 2024).

Tests used:
[1] = target: T1, Muscarinic acetylcholine receptor M4 (Homo sapiens) (UniProt P08173); settings: Flp-In-CHO, dose 10.0 µM, time 8.0 min
T1 sequence (whole entry): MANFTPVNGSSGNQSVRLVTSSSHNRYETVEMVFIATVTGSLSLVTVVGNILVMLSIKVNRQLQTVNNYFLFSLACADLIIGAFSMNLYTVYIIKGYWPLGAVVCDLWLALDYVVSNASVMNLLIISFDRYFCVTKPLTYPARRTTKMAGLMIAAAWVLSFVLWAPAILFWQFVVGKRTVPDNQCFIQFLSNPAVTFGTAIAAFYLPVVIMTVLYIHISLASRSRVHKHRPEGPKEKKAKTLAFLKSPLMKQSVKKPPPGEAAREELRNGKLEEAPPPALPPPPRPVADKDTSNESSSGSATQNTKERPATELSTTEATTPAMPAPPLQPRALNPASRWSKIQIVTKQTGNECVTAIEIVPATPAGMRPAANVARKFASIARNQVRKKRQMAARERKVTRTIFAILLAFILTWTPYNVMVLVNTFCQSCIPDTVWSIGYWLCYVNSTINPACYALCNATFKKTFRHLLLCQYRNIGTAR

[2] = target: T1, Muscarinic acetylcholine receptor M4 (Homo sapiens); settings: Flp-In-CHO
Description: Positive allosteric modulation at human M4 mAChR stably expressed in Flp-In-CHO cells co-transfected with CAMYEL biosensor assessed as ACh-induced CAMYEL activation by measuring log of operational efficacy by BRET assay

[3] = target: T1, Muscarinic acetylcholine receptor M4 (Homo sapiens); settings: Flp-In-CHO, filed as positive allosteric modulator
Description: Positive allosteric modulation at human M4 mAChR stably expressed in Flp-In-CHO cells co-transfected with CAMYEL biosensor assessed as ACh-induced CAMYEL activation by measuring log of functional co-operativity by BRET assay

[4] = target: T1, Muscarinic acetylcholine receptor M4 (Homo sapiens); settings: Flp-In-CHO, filed as positive allosteric modulator, time 8.0 min
[5] = target: T1, Muscarinic acetylcholine receptor M4 (Homo sapiens); settings: Flp-In-CHO, filed as positive allosteric modulator, time 8.0 min; remark: listed apart in the source
[6] = target: T1, Muscarinic acetylcholine receptor M4 (Homo sapiens); settings: Flp-In-CHO, filed as positive allosteric modulator, time 8.0 min; remark: listed apart in the source
[7] = target: T1, Muscarinic acetylcholine receptor M4 (Homo sapiens); settings: Flp-In-CHO, time 5.0 min
[8] = target: T1, Muscarinic acetylcholine receptor M4 (Homo sapiens); settings: Flp-In-CHO, filed as positive allosteric modulator, time 5.0 min
[9] = filed as positive allosteric modulator

SMILES | deltapEC50 [1] | log(activity) [2] | log(activity) [3] | log(activity) [4] | log(activity) [5] | pKb [6] | log(activity) [2, 9] | log(activity) [7, 9] | log(activity) [8] | log(activity) [7]
COC(=O)CCn1cc(-c2ccc(C)nc2-c2ccc3c(c2)C(=O)N(C)C3)cn1 | > 0.4 | -0.28 | 1.08 | 0.73 | 1.46 | 4.57 |  |  |  | 
Cc1cnc(-c2ccc3c(c2)C(=O)N(C)C3)c(-c2cnn(CC3CCCC3)c2)c1 |  |  | 2.12 | 2.17 | 2.53 | 4.73 | 1.17 | 0.08 | 2.3 | 
Cc1ccc(-c2cnn(CC3CCCC3)c2)c(-c2ccc3c(c2)C(=O)N(C)C3)n1 |  |  | 0.53 | 1.58 | 1.74 | 5.86 | 0.25 | 0.02 | 1.89 | 
CN1Cc2ccc(-c3nc4ccccc4cc3-c3cnn(CC4CCCC4)c3)cc2C1=O | > 0.4 |  | 1.99 | 1.56 | 2.01 | 4.53 | 0.84 |  | 1.92 | -0.28
Cc1ccc(-c2cnn(CC3CCCC3)c2)c(-c2ccc3c(c2)C(=O)NC3)n1 |  |  | 1.07 | 1.72 | 2.15 | 5.65 | 0.5 |  |  | 
Cc1ncc(-c2cnn(CC3CCCC3)c2)c(-c2ccc3c(c2)C(=O)N(C)C3)n1 |  |  | 0.74 | 1.3 | 1.92 | 4.71 | 0.1 |  |  | 
Cc1ccc(-c2cnn(CC3CCCC3)c2)c(-c2ccc3c(c2)C(=O)N(CC#N)C3)n1 |  |  | 1 | 1.55 | 1.94 | 5.26 | 0.48 |  |  | 

Next, values leading:

deltapEC50 [1] | log(activity) [2] | log(activity) [3] | log(activity) [4] | log(activity) [5] | pKb [6] | log(activity) [2, 9] | log(activity) [7, 9] | log(activity) [8] | log(activity) [7] | SMILES
> 0.4 |  |  |  |  |  |  |  |  |  | Cc1ccc(-c2cnn(CCCCC(=O)O)c2)c(-c2ccc3c(c2)C(=O)N(C)C3)n1
 |  | 1.03 | 1.16 | 1.93 | 4.55 | 0.28 |  |  |  | Cc1ccc(-c2cnn(CCCCC#N)c2)c(-c2ccc3c(c2)C(=O)N(C)C3)n1
> 0.4 |  |  |  |  |  |  |  |  |  | COC(=O)CCCCn1cc(-c2ccc(C)nc2-c2ccc3c(c2)C(=O)N(C)C3)cn1
> 0.4 |  |  |  |  |  |  |  |  |  | Cc1ccc(-c2cnn(CCC(N)=O)c2)c(-c2ccc3c(c2)C(=O)N(C)C3)n1
> 0.4 | -0.64 | 0.84 | 0.88 | 1.49 | 4.74 |  |  |  |  | Cc1ccc(-c2cnn(CCC#N)c2)c(-c2ccc3c(c2)C(=O)N(C)C3)n1
 |  | 1.04 | 1.05 | 1.94 | 4.73 | 0.18 |  |  |  | COC(=O)CCCn1cc(-c2ccc(C)nc2-c2ccc3c(c2)C(=O)N(C)C3)cn1
> 0.4 |  |  |  |  |  |  |  |  |  | Cc1ccc(-c2cnn(CCCC(=O)O)c2)c(-c2ccc3c(c2)C(=O)N(C)C3)n1
 | -0.47 | 0.44 | 0.85 | 1.56 | 4.79 |  |  |  |  | Cc1ccc(-c2cnn(CCCN)c2)c(-c2ccc3c(c2)C(=O)N(C)C3)n1
